Among the data in patent US20250026778A1 (TIUMBIO CO., LTD., priority 2021, published 2025) are inhibition values, retold here.

Bounds are passed on as bounds.

In one assay the target is T1, his-galectin-3 (Homo sapiens, UniProt P17931).
T1 construct: purchased Abcam
T1 sequence (P17931 whole entry): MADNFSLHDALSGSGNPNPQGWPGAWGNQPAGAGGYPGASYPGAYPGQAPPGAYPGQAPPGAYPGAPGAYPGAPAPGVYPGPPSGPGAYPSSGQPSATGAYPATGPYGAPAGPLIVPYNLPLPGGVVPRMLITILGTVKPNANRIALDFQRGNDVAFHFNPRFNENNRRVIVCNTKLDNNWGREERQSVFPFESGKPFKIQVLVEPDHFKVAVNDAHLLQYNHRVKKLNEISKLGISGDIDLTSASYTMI
Description: TR-FRET assay (in vitro galectin-3 binding inhibitory activity test). As to conditions: Table 2; compound at 20 μM; 60 nM his-galectin-3, 15 nM biotin-ASF; read-out: % Inhibitory activity (at 20 μM). The gist of the method:
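Compound is premixed with his-galectin-3 (60 nM final), then biotin-ASF (15 nM), Tb anti-His antibody (2 nM) and streptavidin-d2 (20 nM) are added. After at least 3.5 hours at RT in HEPES/NaCl buffer with Tween 20 and BSA, TR-FRET is read at 615/665 nm. DMSO serves as the uninhibited control, ASF omission as background.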
As for `OC[C@H]1O[C@@]2(CCCN(c3ccc(Cl)cc3)C2)[C@H](O)[C@@H](n2cc(-c3cc(F)c(F)c(F)c3)nn2)[C@H]1O` [Compound A224, (2R,3R,4S,5R,6R)-8-(4-chlorophenyl)-2-(hydroxymethyl)-4-(4-(3,4,5-trifluorophenyl)-1H-1,2,3-triazol-1-yl)-1-oxa-8-azaspiro[5.5]undecane-3,5-diol], the inhibition at 20 µM is < 25%. `OC[C@H]1O[C@@]2(CCCN(c3cccs3)C2)[C@H](O)[C@@H](n2cc(-c3cc(F)c(F)c(F)c3)nn2)[C@H]1O` [Compound A225, (2R,3R,4S,5R,6R)-2-(hydroxymethyl)-8-(thiophen-2-yl)-4-(4-(3,4,5-trifluorophenyl)-1H-1,2,3-triazol-1-yl)-1-oxa-8-azaspiro[5.5]undecane-3,5-diol]: the inhibition at 20 µM is < 25%.

On to `O=C(c1ccc(Cl)cc1)N1CCC[C@]2(C1)O[C@H](CO)[C@H](O)[C@H](n1cc(-c3cc(F)c(F)c(F)c3)nn1)[C@H]2O` [Compound A227, (4-chlorophenyl)((2R,3R,4S,5R,6R)-3,5-dihydroxy-2-(hydroxymethyl)-4-(4-(3,4,5-trifluorophenyl)-1H-1,2,3-triazol-1-yl)-1-oxa-8-azaspiro[5.5]undecan-8-yl)methanone], for which the inhibition at 20 µM was < 25%.

With `Cc1cc(C(=O)N[C@@H]2CCO[C@]23O[C@H](CO)[C@H](O)[C@H](n2cc(-c4cc(F)c(F)c(F)c4)nn2)[C@H]3O)c2cc(F)ccc2n1` [Compound A228, N-((4R,5S,7R,8R,9S,10R)-8,10-dihydroxy-7-(hydroxymethyl)-9-(4-(3,4,5-trifluorophenyl)-1H-1,2,3-triazol-1-yl)-1,6-dioxaspiro[4.5]decan-4-yl)-6-fluoro-2-methylquinoline-4-carboxamide], the inhibition at 20 µM is > 75%. With `Cc1cc(C(=O)N[C@@H]2CCO[C@]23O[C@H](CO)[C@H](O)[C@H](n2cc(-c4cc(F)c(F)c(F)c4)nn2)[C@H]3O)c2cc(Cl)ccc2n1` [Compound A229, 6-chloro-N-((4R,5S,7R,8R,9S,10R)-8,10-dihydroxy-7-(hydroxymethyl)-9-(4-(3,4,5-trifluorophenyl)-1H-1,2,3-triazol-1-yl)-1,6-dioxaspiro[4.5]decan-4-yl)-2-methylquinoline-4-carboxamide], the inhibition at 20 µM is > 75%. As for `O=C(N[C@@H]1CCO[C@]12O[C@H](CO)[C@H](O)[C@H](n1cc(-c3cc(F)c(F)c(F)c3)nn1)[C@H]2O)c1cccc2occc12` [Compound A230, N-((4R,5S,7R,8R,9S,10R)-8,10-dihydroxy-7-(hydroxymethyl)-9-(4-(3,4,5-trifluorophenyl)-1H-1,2,3-triazol-1-yl)-1,6-dioxaspiro[4.5]decan-4-yl)benzofuran-4-carboxamide], the inhibition at 20 µM was in the range of 50 to 75%. As for `Cc1cc(C(=O)N[C@@H]2CCO[C@]23O[C@H](CO)[C@H](O)[C@H](n2cc(-c4cc(F)c(F)c(F)c4)nn2)[C@H]3O)c2cc(Br)ccc2n1` [Compound A231, 6-bromo-N-((4R,5S,7R,8R,9S,10R)-8,10-dihydroxy-7-(hydroxymethyl)-9-(4-(3,4,5-trifluorophenyl)-1H-1,2,3-triazol-1-yl)-1,6-dioxaspiro[4.5]decan-4-yl)-2-methylquinoline-4-carboxamide], the inhibition at 20 µM is > 75%. Still for that read-out and setting: the same measure for `O=C(N[C@@H]1CCO[C@]12O[C@H](CO)[C@H](O)[C@H](n1cc(-c3cc(F)c(F)c(F)c3)nn1)[C@H]2O)c1c[nH]c2cccc(Cl)c12` [Compound A232, 4-chloro-N-((4R,5S,7R,8R,9S,10R)-8,10-dihydroxy-7-(hydroxymethyl)-9-(4-(3,4,5-trifluorophenyl)-1H-1,2,3-triazol-1-yl)-1,6-dioxaspiro[4.5]decan-4-yl)-1H-indole-3-carboxamide]: > 75%; for `Cn1cc(C(=O)N[C@@H]2CCO[C@]23O[C@H](CO)[C@H](O)[C@H](n2cc(-c4cc(F)c(F)c(F)c4)nn2)[C@H]3O)c2cc(Cl)ccc21` [Compound A233, 5-chloro-N-((4R,5S,7R,8R,9S,10R)-8,10-dihydroxy-7-(hydroxymethyl)-9-(4-(3,4,5-trifluorophenyl)-1H-1,2,3-triazol-1-yl)-1,6-dioxaspiro[4.5]decan-4-yl)-1-methyl-1H-indole-3-carboxamide]: 50 to 75%.

Consider `Cc1sc2ccccc2c1C(=O)N[C@@H]1CCO[C@]12O[C@H](CO)[C@H](O)[C@H](n1cc(-c3cc(F)c(F)c(F)c3)nn1)[C@H]2O` [Compound A234, N-((4R,5S,7R,8R,9S,10R)-8,10-dihydroxy-7-(hydroxymethyl)-9-(4-(3,4,5-trifluorophenyl)-1H-1,2,3-triazol-1-yl)-1,6-dioxaspiro[4.5]decan-4-yl)-2-methylbenzo[b]thiophene-3-carboxamide], for which the inhibition at 20 µM was > 75%. Consider `OC[C@H]1O[C@@]2(CCCO2)[C@H](O)[C@@H](n2cc(-c3cc(F)c(F)c(F)c3)cn2)[C@H]1O` [Compound A237, (5S,7R,8R,9S,10R)-7-(hydroxymethyl)-9-(4-(3,4,5-trifluorophenyl)-1H-pyrazol-1-yl)-1,6-dioxaspiro[4.5]decane-8,10-diol], for which the inhibition at 20 µM is 25 to 50%.

As for `O=C(N[C@@H]1CCO[C@]12O[C@H](CO)[C@H](O)[C@H](n1cc(-c3cc(F)c(F)c(F)c3)cn1)[C@H]2O)c1cccc2ccc(Cl)cc12` [Compound A238, 7-chloro-N-((4R,5S,7R,8R,9S,10R)-8,10-dihydroxy-7-(hydroxymethyl)-9-(4-(3,4,5-trifluorophenyl)-1H-pyrazol-1-yl)-1,6-dioxaspiro[4.5]decan-4-yl)-1-naphthamide], the inhibition at 20 µM was > 75%. Regarding `Cc1cc(C(=O)N[C@@H]2CCO[C@]23O[C@H](CO)[C@H](O)[C@H](n2cc(-c4cc(F)c(F)c(F)c4)cn2)[C@H]3O)c2cc(Cl)ccc2n1` [Compound A239, 6-chloro-N-((4R,5S,7R,8R,9S,10R)-8,10-dihydroxy-7-(hydroxymethyl)-9-(4-(3,4,5-trifluorophenyl)-1H-pyrazol-1-yl)-1,6-dioxaspiro[4.5]decan-4-yl)-2-methylquinoline-4-carboxamide], the inhibition at 20 µM is > 75%.

For `Cc1ccc2ccccc2c1C(=O)N[C@@H]1CCO[C@]12O[C@H](CO)[C@H](O)[C@H](n1cc(-c3cc(F)c(F)c(F)c3)nn1)[C@H]2O` [Compound A240, N-((4R,5S,7R,8R,9S,10R)-8,10-dihydroxy-7-(hydroxymethyl)-9-(4-(3,4,5-trifluorophenyl)-1H-1,2,3-triazol-1-yl)-1,6-dioxaspiro[4.5]decan-4-yl)-2-methyl-1-naphthamide], the inhibition at 20 µM was 50 to 75%. With `COc1cc(C(=O)N[C@@H]2CCO[C@]23O[C@H](CO)[C@H](O)[C@H](n2cc(-c4cc(F)c(F)c(F)c4)nn2)[C@H]3O)c2ccccc2c1` [Compound A241, N-((4R,5S,7R,8R,9S,10R)-8,10-dihydroxy-7-(hydroxymethyl)-9-(4-(3,4,5-trifluorophenyl)-1H-1,2,3-triazol-1-yl)-1,6-dioxaspiro[4.5]decan-4-yl)-3-methoxy-1-naphthamide], the inhibition at 20 µM was > 75%.

As to `COc1ccc2ccccc2c1C(=O)N[C@@H]1CCO[C@]12O[C@H](CO)[C@H](O)[C@H](n1cc(-c3cc(F)c(F)c(F)c3)nn1)[C@H]2O` [Compound A242, N-((4R,5S,7R,8R,9S,10R)-8,10-dihydroxy-7-(hydroxymethyl)-9-(4-(3,4,5-trifluorophenyl)-1H-1,2,3-triazol-1-yl)-1,6-dioxaspiro[4.5]decan-4-yl)-2-methoxy-1-naphthamide], the inhibition at 20 µM fell in the range of 50 to 75%. For `Cc1ccc(C(=O)N[C@@H]2CCO[C@]23O[C@H](CO)[C@H](O)[C@H](n2cc(-c4cc(F)c(F)c(F)c4)nn2)[C@H]3O)c2ccccc12` [Compound A243, N-((4R,5S,7R,8R,9S,10R)-8,10-dihydroxy-7-(hydroxymethyl)-9-(4-(3,4,5-trifluorophenyl)-1H-1,2,3-triazol-1-yl)-1,6-dioxaspiro[4.5]decan-4-yl)-4-methyl-1-naphthamide], the inhibition at 20 µM was > 75%. For the compound `O=C(N[C@@H]1CCO[C@]12O[C@H](CO)[C@H](O)[C@H](n1cc(-c3cc(F)c(F)c(F)c3)nn1)[C@H]2O)c1cccc2cccnc12` [Compound A244, N-((4R,5S,7R,8R,9S,10R)-8,10-dihydroxy-7-(hydroxymethyl)-9-(4-(3,4,5-trifluorophenyl)-1H-1,2,3-triazol-1-yl)-1,6-dioxaspiro[4.5]decan-4-yl)quinoline-8-carboxamide], the inhibition at 20 µM was in the range of 50 to 75%.

`Cc1cc(C(=O)N[C@@H]2CCO[C@]23O[C@H](CO)[C@H](O)[C@H](n2cc(-c4cc(F)c(F)c(F)c4)nn2)[C@H]3O)c2cccnc2c1` [Compound A245, N-((4R,5S,7R,8R,9S,10R)-8,10-dihydroxy-7-(hydroxymethyl)-9-(4-(3,4,5-trifluorophenyl)-1H-1,2,3-triazol-1-yl)-1,6-dioxaspiro[4.5]decan-4-yl)-7-methylquinoline-5-carboxamide]: the inhibition at 20 µM was > 75%.

The same assay, now with this note: Table 3, found values; compound at 20 μM; 60 nM his-galectin-3, 15 nM biotin-ASF; read-out: % Inhibitory activity (at 20 μM).
Regarding `OC[C@H]1O[C@@]2(CCCN(c3ccc(Cl)cc3)C2)[C@H](O)[C@@H](n2cc(-c3cc(F)c(F)c(F)c3)nn2)[C@H]1O` [Compound A224, (2R,3R,4S,5R,6R)-8-(4-chlorophenyl)-2-(hydroxymethyl)-4-(4-(3,4,5-trifluorophenyl)-1H-1,2,3-triazol-1-yl)-1-oxa-8-azaspiro[5.5]undecane-3,5-diol], the inhibition at 20 µM was determined as 24.2%. With `O=C(N[C@@H]1CCO[C@]12O[C@H](CO)[C@H](O)[C@H](n1cc(-c3cc(F)c(F)c(F)c3)nn1)[C@H]2O)c1cccc2occc12` [Compound A230, N-((4R,5S,7R,8R,9S,10R)-8,10-dihydroxy-7-(hydroxymethyl)-9-(4-(3,4,5-trifluorophenyl)-1H-1,2,3-triazol-1-yl)-1,6-dioxaspiro[4.5]decan-4-yl)benzofuran-4-carboxamide], the inhibition at 20 µM stood at 66.5%. In the case of `Cc1ccc2ccccc2c1C(=O)N[C@@H]1CCO[C@]12O[C@H](CO)[C@H](O)[C@H](n1cc(-c3cc(F)c(F)c(F)c3)nn1)[C@H]2O` [Compound A240, N-((4R,5S,7R,8R,9S,10R)-8,10-dihydroxy-7-(hydroxymethyl)-9-(4-(3,4,5-trifluorophenyl)-1H-1,2,3-triazol-1-yl)-1,6-dioxaspiro[4.5]decan-4-yl)-2-methyl-1-naphthamide], the inhibition at 20 µM turned out to be 72.1%.

Still in this assay, the particulars now being: read-out: % Inhibitory activity (at 20 μM), Table 2; compound at 20 μM; 60 nM his-galectin-3, 15 nM biotin-ASF.
Turning to `OC[C@H]1O[C@@]2(CCCN(c3ccncn3)C2)[C@H](O)[C@@H](n2cc(-c3cc(F)c(F)c(F)c3)nn2)[C@H]1O` [Compound A226, (2R,3R,4S,5R,6R)-2-(hydroxymethyl)-8-(pyrimidin-4-yl)-4-(4-(3,4,5-trifluorophenyl)-1H-1,2,3-triazol-1-yl)-1-oxa-8-azaspiro[5.5]undecane-3,5-diol], the inhibition at 20 µM was < 25%.
